PubChem BioAssay (NCI)
Where “and” joins values, the source holds several entries; their conditions need not be identical. Equal values may be shown once.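 Dose response: 5 concentrations. Exposure: 48 h. Format: 96-well plates. Endpoint: linear interpolation; highest concentration if not reached. GI50 marks 50% less growth. TGI: total growth inhibition.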 Where a SMILES comes first, the peptide text is derived from it. The star is where a group is joined. Boc = CC(C)(C)OC(=O)*; OBn = c1ccc(CO*)cc1

Tests used:
Experiment in all cases: growth of human tumour cells (NCI), 48 h
[1] = test system: ACHN renal
[2] = test system: IGROV1 ovarian
[3] = test system: SN12C renal
[4] = test system: HOP-62 NSCLC
[5] = test system: SW-620 colon
[6] = test system: NCI-H522 lung
[7] = test system: HS 578T breast
[8] = test system: MDA-MB-435
[9] = test system: BT-549 breast
[10] = test system: SF-268 CNS

Compound | TGI [1] [µM] | TGI [2] | GI50 [3] | TGI [3] | GI50 [4] [µM] | TGI [4] | GI50 [5] | TGI [5] | TGI [6] | TGI [7] [µM] | TGI [8] [µM] | TGI [9] [µM] | TGI [10] [µM]
NC(=O)C#CC(N)=O | > 100 | 213 µM and 189 µM and > 100 µM | 14.3 µM and 36.4 µM | 26.6 µM and > 100 µM | 57.4 | 211 µM and 170 µM and > 100 µM | 5.74 µM and 3.1 µM and 15.2 µM | 18.2 µM and 12.1 µM and 31.1 µM | 46.5 µM and 27.7 µM and 55.2 µM |  |  |  | 
C=C(CC[C@@H](C(=O)O)[C@H]1[C@H](O)C[C@@]2(C)C3=CC[C@@H](C(=C)C)[C@](C)(CCC(=O)O)C3=CC[C@]12C)C(C)C | 31.4 |  |  | 31.9 µM |  |  |  | 55.5 µM | 38.3 µM | 42.2 | 33.5 | 33 | 
COC(=O)c1cc(C#N)[nH]c1-c1ccc(C)s1 | > 100 |  |  | > 100 µM |  | > 100 µM |  | > 100 µM | 89.7 µM |  | > 100 | > 100 | > 100
[N-]=[N+]=CC(=O)OCC1SCCCS1 | > 100 | > 100 µM |  | > 100 µM |  | > 100 µM |  | > 100 µM | > 100 µM |  | > 100 | > 100 | > 100
Cc1cccc(NC(=O)C(=O)C(C(=O)c2ccccc2F)C2OC(=O)c3ccccc32)c1Cl (configuration not stated) | > 100 | > 100 µM |  | > 100 µM |  | > 100 µM |  | > 100 µM | 79.9 µM |  |  |  | 80.9
C1CCC(OC2CSC2)OC1 (configuration not stated) | > 100 |  |  | > 100 µM |  |  |  | > 100 µM | > 100 µM | > 100 | > 100 |  | > 100
CCCNC(C#N)c1ccc(C(C#N)NCCC)cc1 (configuration not stated) | > 100 | > 100 µM |  | > 100 µM |  |  |  | > 100 µM | > 100 µM | > 100 | > 100 | > 100 | > 100
COP(=O)(OC)C(Cc1c[nH]c2ccccc12)NC(=O)OCc1ccccc1 (configuration not stated) | > 100 | > 100 µM |  | > 100 µM |  | > 100 µM |  | > 100 µM | > 100 µM | > 100 | > 100 |  | 
CNC(=O)c1cc(NC(=O)N(CCC#N)CCN(C(=O)N[C@@H](Cc2ccccc2)C(=O)N[C@@H](CC(C)C)C(=O)NC)c2ccccc2)ccc1OC | > 100 | > 73.2 µM |  | > 85.1 µM |  | > 100 µM |  | > 100 µM |  | > 100 | > 100 | > 100 | > 65.7
O=C1/C(=C/c2ccccc2[N+](=O)[O-])N=C(c2ccccc2)N1C1Nc2cc3c(cc2S1)NC(N1C(=O)/C(=C/c2ccccc2[N+](=O)[O-])N=C1c1ccccc1)S3 (configuration not stated) | > 100 | > 100 µM |  |  |  | > 100 µM |  | > 100 µM | 77.9 µM | > 100 | > 100 | > 100 | > 100
Oc1[nH]c2ccccc2c1N=Nc1nc(-c2ccc(Cl)c(Cl)c2)cs1 | > 100 | > 100 µM |  | > 100 µM |  | > 100 µM |  | > 100 µM |  |  | > 100 |  | 
C=C(C)C(=O)[C@@]12C(=O)[C@@H](C)CC[C@H]1[C@H](C)C[C@@H]2C=C(C)C | 25.6 | 64.5 µM |  | 40.7 µM |  | > 100 µM |  | 44 µM | 27.7 µM |  | 54.3 |  | 36
O=C1C(Br)=CC2(C=C1Br)CCNC1=C2C(=O)c2cccnc2C1=O | 48.9 | 21.8 µM |  | 25.1 µM |  | 21.3 µM |  | 27.3 µM | 13.9 µM | 45.3 | 3.33 |  | 32.2
Cc1cc(S(=O)(=O)O)c(NC(=O)C(=O)C2C=CCS2(=O)=O)cc1Cl (configuration not stated) | > 100 | > 100 µM |  | > 100 µM |  | > 100 µM |  | > 100 µM | > 100 µM |  |  |  | > 100
C/C(=N\NC(N)=S)C(CN(CC(C)C)CC(C)C)C(=O)Nc1ccc(C)cc1C (configuration not stated) | > 100 | > 100 µM |  | > 100 µM |  | > 100 µM |  | > 100 µM | > 100 µM |  |  |  | > 100
O=[N+]([O-])c1ccc(N=Nc2c(O)c(S(=O)(=O)O)cc3cc(S(=O)(=O)O)ccc23)cc1 | > 100 | > 100 µM |  | > 100 µM |  | > 100 µM |  | > 100 µM | > 100 µM | > 100 | > 100 | > 100 | 
CC(NC(=O)C(NC(=O)OC(C)(C)C)C(C)C)C(=O)N1CCCC1C(=O)NCC(=O)NC(C(=O)NCC(=O)OCc1ccccc1)C(C)C (configuration not stated) (Boc-VAPGVG-OBn; configuration not given here) | > 100 | > 100 µM |  | > 100 µM |  | > 100 µM |  | > 100 µM | > 100 µM |  | > 100 |  | > 100
O=C1Cc2c([nH]c3ccc(Br)cc23)-c2ccccc2N1 | > 100 | > 100 µM |  | > 100 µM |  | > 100 µM |  |  | > 100 µM | > 100 | > 100 |  | > 100
CC(CO)C1C[C@H](O)[C@@]2(C)CC(=O)C=C(CO)[C@@H]2C1 (some centres not stated) | > 100 | > 100 µM |  | > 100 µM |  | > 100 µM |  | > 100 µM |  |  | > 100 | > 100 | > 100
O=C1COc2ccc([N+](=O)[O-])cc2C(=O)C1 | > 10 | > 10 µM |  | > 10 µM |  | > 10 µM |  | > 10 µM |  | > 10 | > 10 | > 10 | > 10
CSc1c(C#N)c(=O)[nH]c2n[nH]c(C)c12 |  |  |  | > 100 µM |  |  |  | > 100 µM |  | > 100 | > 100 | > 100 | > 100
CC(=O)O[C@]12CCCC1C1(O)C(O)CCCC12 (some centres not stated) | > 100 |  |  | > 100 µM |  | > 100 µM |  | > 100 µM | > 100 µM |  |  |  | > 100
COC(=O)/C=C/c1cc(O)c2c(c1)[C@H](C(=O)OC)[C@@H](c1ccc(O)c(O)c1)O2 | > 85.2 | > 38.8 µM |  | > 74.1 µM |  | > 58.7 µM |  | > 100 µM | 0.838 µM | 78.3 |  | 30.3 | > 87
